Source: patent publication US8349835B2, “Aromatic ring fused triazine derivatives and uses thereof” (Shenyang Pharmaceutical University, priority 2008, dated 2013)

Assays:
Rat aortic ring = test: Rat Aortic Ring Assay; assay type: cell-based; conditions: for Rat Aortic Ring Assay (10 ug/ml), result in words: observed on the sixth day; for inhibition at 10 µg/mL: Rattus norvegicus, 10 ug/ml
Source text: Rat Aortic Ring Assay • 1) 6 week old SD […] (Sprague Dawley) were selected for the experiments. Cleaned abdominal skin with 75% ethanol to disinfect, and then anesthetized the mice with ether, • 2) Carefully removed the abdominal aortas and transferred the aortas to normal saline. Excessive vascular tissues were carefully removed with scissors. • 3) The aortas were rinsed with normal saline until no blood stain remained. • 4) Sectioned the aortas into one millimeter depth arterial slices with ophthalmological scissors. • 5) Add 50 μL pre-thawed Matrigel to each well of the pre-cooled 96 well cell culture plates, and embedded the ring-shaped mouse aortas in collagen gel. • 6) Incubated for 60 minutes at 37° C. to solidificate the gel. • 7) Added DMEM culture solution containing 10% FBS, along with different concentrations of the selected compounds into the wells and cultured in the incubator. Every compound was repeated in no less than 3 wells. • 8) Replaced with the fresh medium and changed the medicine once on the third day. • 9) Took out the pates on the sixth day, and observed the vascular growth with Microscope (OLYMPUS, DP70, Japan) and took photographs(×100). Randomly chose 3 arterial rings to photograph and calculated the area covered by micro-vascular with Image Pro Plus software. The inhibition rate is calculated as:
[formula] • Evaluation criteria: ⋆inhibition rate[…]; ⋆⋆inhibition rate 60-90%; ⋆⋆⋆inhibition rate>90%.

VEGFR-2 = VEGFR-2 (Homo sapiens, UniProt P35968); test: VEGFR-2 inhibition rate test (kinase assay kit, colorimetric ELISA); conditions: concentration not given
[1] = compared with blank control, sixth day

VEGFR-2, sequence (P35968 20-1356): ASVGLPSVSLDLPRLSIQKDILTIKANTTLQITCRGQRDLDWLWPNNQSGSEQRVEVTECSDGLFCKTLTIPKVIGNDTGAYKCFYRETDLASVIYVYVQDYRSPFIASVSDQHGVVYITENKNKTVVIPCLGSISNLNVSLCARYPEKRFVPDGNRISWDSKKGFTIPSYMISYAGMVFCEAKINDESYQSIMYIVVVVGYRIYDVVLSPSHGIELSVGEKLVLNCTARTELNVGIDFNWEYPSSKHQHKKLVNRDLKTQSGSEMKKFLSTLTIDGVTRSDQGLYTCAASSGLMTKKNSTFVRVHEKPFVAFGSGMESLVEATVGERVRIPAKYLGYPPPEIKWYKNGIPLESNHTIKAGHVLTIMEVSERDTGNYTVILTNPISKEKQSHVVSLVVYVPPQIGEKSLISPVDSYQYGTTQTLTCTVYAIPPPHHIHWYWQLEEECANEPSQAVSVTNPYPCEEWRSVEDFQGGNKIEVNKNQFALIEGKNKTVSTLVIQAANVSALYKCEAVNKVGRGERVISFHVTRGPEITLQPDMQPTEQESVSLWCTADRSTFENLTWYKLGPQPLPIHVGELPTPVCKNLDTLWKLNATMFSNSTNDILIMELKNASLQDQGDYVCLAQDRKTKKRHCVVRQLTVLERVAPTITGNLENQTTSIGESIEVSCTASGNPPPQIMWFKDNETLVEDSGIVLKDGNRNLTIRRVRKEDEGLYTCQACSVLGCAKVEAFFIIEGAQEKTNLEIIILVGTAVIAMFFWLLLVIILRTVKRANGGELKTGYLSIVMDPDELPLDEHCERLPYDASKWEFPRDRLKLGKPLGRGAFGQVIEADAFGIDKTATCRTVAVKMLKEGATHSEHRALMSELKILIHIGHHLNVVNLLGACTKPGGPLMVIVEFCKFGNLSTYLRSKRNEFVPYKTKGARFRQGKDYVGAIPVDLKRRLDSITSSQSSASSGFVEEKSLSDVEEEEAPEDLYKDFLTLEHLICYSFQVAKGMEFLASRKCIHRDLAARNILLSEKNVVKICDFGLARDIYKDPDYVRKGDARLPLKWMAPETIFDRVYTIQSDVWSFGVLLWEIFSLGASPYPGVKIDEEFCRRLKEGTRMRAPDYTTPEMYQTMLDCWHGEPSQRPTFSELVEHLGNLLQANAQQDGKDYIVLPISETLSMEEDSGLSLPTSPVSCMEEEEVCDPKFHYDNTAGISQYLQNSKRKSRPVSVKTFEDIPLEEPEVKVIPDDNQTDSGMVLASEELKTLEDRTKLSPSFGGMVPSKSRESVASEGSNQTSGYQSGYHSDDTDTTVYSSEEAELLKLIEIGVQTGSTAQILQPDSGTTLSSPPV

Structure (SMILES) | Rat Aortic Ring Assay (10 ug/ml), result in words (Rat aortic ring) | Kinase inhibition rate (VEGFR-2) (VEGFR-2) | inhibition at 10 µg/mL (Rat aortic ring; [1]) | Rat Aortic Ring Assay (10 ug/ml), inhibition (Rat aortic ring; [1])
CCCCOc1cc2nnnc(Nc3cccc(C(F)(F)F)c3)c2cc1OC [Example 17, 6-methoxy-7-n-butoxy-4-(3-trifluoromethylanilino)-benzo[d][1,2,3]triazine] | No significant inhibition compared with the blank control | −5.34 | – | –
CCCCOc1cc2nnnc(Nc3ccc(C(F)(F)F)cc3)c2cc1OC [Example 18, 6-methoxy-7-n-butoxy-4-(4-trifluoromethylanilino)-benzo[d][1,2,3]triazine] | No significant inhibition | 3.20 | – | –
CCOc1cc2nnnc(Nc3ccccc3)c2cc1OC [Example 28, 6-methoxy-7-ethoxy-4-anilino-benzo[d][1,2,3]triazine] | – | 45.98 | ~40% | –
CCOc1cc2nnnc(Nc3ccc(C(F)(F)F)cc3)c2cc1OC [Example 35, 6-methoxy-7-ethoxy-4-(4-trifluoromethylanilino)-benzo[d][1,2,3]triazine] | – | – | ~40% | –
CCOc1cc2nnnc(Nc3ccc(C)cc3)c2cc1OC [Example 43, 6-methoxy-7-ethoxy-4-(4-methylanilino)-benzo[d][1,2,3]triazine] | No significant inhibition | 43.56 | – | –
COc1cc2c(Nc3cc(F)cc(F)c3)nnnc2cc1OCCCCl [Example 64, 6-methoxy-7-chloropropoxy-4-(3,5-difluoroanilino)-benzo[d][1,2,3]triazine] | – | 10.73 | > 50% | –
COc1cc2c(Nc3ccc(F)c(Cl)c3)nnnc2cc1OCCCN1CCOCC1 [Example 94, 6-methoxy-7-(3-morpholinopropoxy)-4-(3-chloro-4-fluoroanilino)-benzo[d][1,2,3]triazine] | No significant inhibition | – | – | –
COc1cc2c(Nc3ccc(F)c(Cl)c3)nnnc2cc1OCCCN1CCCCC1.Cl [Example 95, 6-methoxy-7-(3-(piperidin-1-yl)-propoxy)-4-(3-chloro-4-fluoroanilino)-benzo[d][1,2,3]triazine hydrochloride] | Vascular growth was significantly inhibited, vascular ring was dead. | – | – | –
COc1cc2c(Nc3ccc(F)c(Cl)c3)nnnc2cc1OCCCN1CCN(C)CC1.Cl [Example 96, 6-methoxy-7-(3-N-methylpiperazin-1-yl-propoxy)-4-(3-chloro-4-fluoroanilino)-benzo[d][1,2,3]triazin-4-amine hydrochloride] | – | – | – | Vessel formation became less, about 30% inhibition
